Target: human GABA A receptor α5β3γ2 (Homo sapiens (Human), UniProt P18507+P31644)
Test: [3H]flumazenil competition binding assay, human GABA A α5β3γ2 receptors expressed in HEK293 cells
Settings: human receptor; displacement of [3H]flumazenil (0.5 nM); means of two determinations; read-out: hKi GABAAa5
In short: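 Ki values, each the mean of two runs, derive from displacement of [3H]flumazenil from human α5β3γ2 GABA A receptors transiently expressed in HEK293 membranes. Binding ran 1 h at 4° C in Krebs-tris, pH 7.5, before filter harvest and scintillation counting.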

| SMILES | Ki [nM] |
| --- | --- |
| Cc1onc(-c2ccccc2)c1COc1ccc(C(=O)NCc2cc(C(C)C)no2)cn1 [Example 80, N-(3-Isopropyl-isoxazol-5-ylmethyl)-6-(5-methyl-3-phenyl-isoxazol-4-ylmethoxy)-nicotinamide] | 44.4 |
| O=C(NC1CCOCC1)c1ccc(OCc2conc2-c2ccccc2)nc1 [Example 322, 6-(3-Phenyl-isoxazol-4-ylmethoxy)-N-(tetrahydro-pyran-4-yl)-nicotinamide] | 17.7 |
| Cc1onc(-c2ccccc2)c1COc1ccc(C(=O)N2CCC2)cn1 [Example 240, Azetidin-1-yl-[6-(5-methyl-3-phenyl-isoxazol-4-ylmethoxy)-pyridin-3-yl]-methanone] | 13.9 |
| Cc1onc(-c2ccccc2)c1COc1ccc(C(=O)NC2CN(C(=O)OC(C)(C)C)C2)cn1 [Example 216, 3-{[6-(5-Methyl-3-phenyl-isoxazol-4-ylmethoxy)-pyridine-3-carbonyl]-amino}-azetidine-1-carboxylic acid tert-butyl ester] | 4.5 |
| Cc1onc(-c2ccccc2)c1COc1ccc(C(=O)NCC(=O)OC(C)(C)C)cn1 [Example 24, {[6-(5-Methyl-3-phenyl-isoxazol-4-ylmethoxy)-pyridine-3-carbonyl]-amino}-acetic acid tert-butyl ester] | 35 |
| Cc1onc(-c2ccc(F)cc2)c1COc1ccc(C2(O)COC2)cn1 [Example 113, 3-{6-[3-(4-Fluoro-phenyl)-5-methyl-isoxazol-4-ylmethoxy]-pyridin-3-yl}-oxetan-3-ol] | 20.9 |
| Cc1onc(-c2cccc(Cl)c2)c1COc1ccc(C(=O)N2CCS(=O)(=O)CC2)cn1 [Example 102, {6-[3-(3-Chloro-phenyl)-5-methyl-isoxazol-4-ylmethoxy]-pyridin-3-yl}-(1,1-dioxo-1λ6-thiomorpholin-4-yl)-methanone] | 19.5 |
| Cc1onc(-c2ccccc2F)c1COc1ccc(C(=O)NCC(F)(F)F)cn1 [Example 84, 6-[3-(2-Fluoro-phenyl)-5-methyl-isoxazol-4-ylmethoxy]-N-(2,2,2-trifluoro-ethyl)-nicotinamide] | 4.5 |
| Cc1onc(-c2ccc(F)cn2)c1COc1ccc(C(=O)O)cn1 [Example 287, 6-[3-(5-Fluoro-pyridin-2-yl)-5-methyl-isoxazol-4-ylmethoxy]-nicotinic acid] | 19.2 |
| CC(C)NC(=O)c1ccc(OCc2conc2-c2ccccn2)nc1 [Example 359, N-Isopropyl-6-(3-pyridin-2-yl-isoxazol-4-ylmethoxy)-nicotinamide] | 13.1 |

Stronger by Ki, values ahead:

| Ki [nM] | SMILES |
| --- | --- |
| 1.7 | Cc1onc(-c2cccc(F)c2)c1COc1ccc(C(=O)NC2CCOCC2)cn1 [Example 93, 6-[3-(3-Fluoro-phenyl)-5-methyl-isoxazol-4-ylmethoxy]-N-(tetrahydro-pyran-4-yl)-nicotinamide] |
| 2.9 | CCNC(=O)c1ccc(OCc2c(-c3ccccc3)noc2C)nc1 [Example 9, N-Ethyl-6-(5-methyl-3-phenyl-isoxazol-4-ylmethoxy)-nicotinamide] |
| 2.6 | Cc1onc(-c2ccccc2)c1COc1ccc(C(=O)NCCCCO)cn1 [Example 220, N-(4-Hydroxy-butyl)-6-(5-methyl-3-phenyl-isoxazol-4-ylmethoxy)-nicotinamide] |
| 0.6 | Cc1onc(-c2ccc(Cl)cn2)c1COc1ccc(C(=O)N2CCOCC2)cn1 [Example 309, {6-[3-(5-Chloro-pyridin-2-yl)-5-methyl-isoxazol-4-ylmethoxy]-pyridin-3-yl}-morpholin-4-yl-methanone] |
| 0.7 | Cc1onc(-c2ccc(Cl)cc2)c1COc1ccc(C(=O)N[C@@H]2CCC[C@H]2O)cn1 (single isomer, unassigned) [Example 259, 6-[3-(4-Chloro-phenyl)-5-methyl-isoxazol-4-ylmethoxy]-N-((1R,2R)-2-hydroxy-cyclopentyl)-nicotinamide or 6-[3-(4-chloro-phenyl)-5-methyl-isoxazol-4-ylmethoxy]-N-((1S,2S)-2-hydroxy-cyclopentyl)-nicotinamide] |

Source: patent US8846719B2, “Isoxazolo-pyridine derivatives” (Roche Palo Alto LLC, priority 2007, dated 2014)
